Assay results published in patent US10913933B2, “Bioengineered liver constructs and methods relating thereto” (Wake Forest University Health Sciences, priority 2013, dated 2021).

System: bioengineered liver organoids
Settings: human, 48 h
Method: For hepatocyte functional analysis, culture medium was collected after the three week incubation. The media was stored at −80° C. until it was used for analysis. For analyzing albumin synthesis, albumin ELISA assay (Bethyl Laboratories Inc.) was carried out on each samples in triplicates. The albumin concentrations were normalized per mg of DNA. The media was also analyzed in the same fashion for urea secretion using a Quantichrome™ Urea Assay Kit (BioAssay Systems, Inc.). […] After 48 hours, media samples were collected and analyzed by mass spectrometry (FIGS. 3C and 3D), and compared with standards of individual metabolites (FIGS. 3A and 3B).
In a second experiment, the liver organoids were prepared as described above in Example 1, Section A using LPC seeding and maintenance media. Alternatively, the organoids can be prepared using minimal LPC medium or hFLP medium instead. After seeding with hFLPCs, the discs were cultured for 3 weeks, with harvesting of cells at 1 week and 3 weeks for immunohistochemical and molecular analysis. Assays assessing albumin and urea synthesis and IHC analyses were performed as described above. Gene expression analyses were performed by RT-PCR after harvesting the organoids. Drug metabolism activity in the organoids was assessed after 1 week and 3 weeks of culturing. […] After 3, 6, 12, and 24 hours, media samples were collected and analyzed by mass spectrometry.

Phase-1 metabolites found in media: 7-hydroxycoumarin
Structure (SMILES): CCOc1ccc2ccc(=O)oc2c1 [7-ethoxycoumarin]
